Assay results: patent publication US20150329512A1, “METHOD AND PHARMACEUTICAL COMPOSITION FOR TREATING LUNG CANCER” (National Dong Hua University, priority 2014, published 2015)

Experiments:
Assay type in all cases: cell-based, human
A549 cells [1] = test: MTT assay, cell viability; conditions: Homo sapiens, 24 hr treatment
Experimental: (§1) A549 (lung cancer cell line, non-resistance) and Anti-Dox-A549 (lung cancer cell line with resistance to Doxorubicin) were maintained in DMEM supplemented with 10% fetal bovine serum (FBS, Gibco), pH 7.4, 37° C. and with continuous circulation of 5% CO2. The medium was changed every 2 days and the cells were trypsinized with trypsin/EDTA when reaching 80%-90% confluence.
(§2) A549 and Anti-Dox-A549 were treated by the following treatment (Table 1) for 24 or 48 hr for examining the effects of HCD, PG, and Dox on their viability.
(§3) Dox1is referred as Dox of 1 μM; Dox2.5 is referred as Dox of 2.5 μM; Dox5 is referred as Dox of 5 μM; Dox10 is referred as Dox of 10 μM; Dox100 is referred as Dox of 100 μM. HCD2.5 is referred as HCD of 2.5 μM; HCD10 is referred as HCD of 10 μM; HCD25 is referred as HCD of 25 μM; HCD50 is referred as HCD of 50 μM. PG2.5 is referred as PG of 2.5 μM; PG5 is referred as PG of 5 μM; PG10 is referred as PG of 10 μM; PG20 is referred as PG of 20 μM.
(§4) In this example, the effects of HCD, PG, and Dox on the viability of A549 and anti-Dox-A549 were examined. The MTT assay was employed for this purpose. The MTT (3-(4-,5-dimethylthiazol-2-yl)-2,5-diphenyltetrazolium bromide) assay is a common colorimetric method in the field for cell viability analysis. MTT (yellow tetrazolium salt) is reduced to a purple formazan by living cells and detection to the purple formazan can be calculated as the cell viability.
(§5) Briefly, cells (A549 or Anti-Dox-A549) were seeded in 96-well plate (7×10^3 cell per well) and incubated overnight (37° C., 5% CO2).

Anti-Dox-A549 cells [2] = test: MTT assay, cell viability; conditions: Homo sapiens, 24 hr treatment
Experimental: as §1, §2, §3, §4, §5

A549 cells [3] = test: Cell cycle analysis by flow cytometer (PI staining); conditions: for G0/G1 (%) / G2/M (%) / S (%) / Sub G1 (%): 24 hr, Table 7 (head prints Anti-Dox-A549; b90: A549 cells)
Experimental: (§6) The results of Example 2 in cell viability hinted the effects of HCD, PG, and Dox on arresting cell cycle. In this example, the phase of cell cycle of A549 cells and Anti-Dox-A549 cells after the treatment listed in Table 1 was determined by flow cytometer. Briefly, 7×10^4 cells per well were to inoculated in 12-wells plate and incubated overnight at 37° C., 5% CO2. Then, cells were treated according to the treatment listed in Table 1 by indicated time period. After treatment, cells were harvested by trypsin and fixed with 70% ethanol at −20° C. for at least 3 hr. The cells were washed in cold PBS twice and then incubated with 1 ml (v/v) staining solution (20 μg/m1 propidium iodide (PI), 0.1% Triton X-100, 0.2 mg/ml Rnase) at 37° C. for 30 minutes. Lastly, cells were analyzed by flow cytometer (Cytomics™ FC500, Backman, Fullerton, Calif., USA). Data from 10,000 cells were collected for each experimental group.

Anti-Dox-A549 cells [4] = test: as above; conditions: for G0/G1 (%) / G2/M (%) / S (%) / Sub G1 (%): 24 hr, Anti-Dox-A549 (Table 6)
Experimental: as §6

IC50 (A549 cells [1]): 5 to 10 µM
IC50 (Anti-Dox-A549 cells [2]): ~100 µM
SMILES: COc1cccc2c1C(=O)c1c(O)c3c(c(O)c1C2=O)C[C@@](O)(C(=O)CO)C[C@@H]3O[C@H]1C[C@H](N)[C@H](O)[C@H](C)O1 [Dox, Doxorubicin]
cell cycle effect (A549 cells [3]; A549 cells, Dox 5, 10, or 20 μM (Table 7)): increased at Sub G1 phase and showed cell arrest at sub G1 phase
G0/G1 (%) (A549 cells [3]; Dox 5 μM): 50.3 ± 0.9 %
G2/M (%) (A549 cells [3]; Dox 5 μM): 15.2 ± 1.6 %
S (%) (A549 cells [3]; Dox 5 μM): 23.5 ± 0.7 %
Sub G1 (%) (A549 cells [3]; Dox 5 μM): 5.8 ± 0.5 %
G0/G1 (%) (A549 cells [3]; Dox 10 μM): 50.2 ± 1.4 %
G2/M (%) (A549 cells [3]; Dox 10 μM): 17 ± 0.3 %
S (%) (A549 cells [3]; Dox 10 μM): 20.3 ± 0.9 %
Sub G1 (%) (A549 cells [3]; Dox 10 μM): 7.4 ± 2.3 %
G0/G1 (%) (A549 cells [3]; Dox 20 μM): 37.3 ± 2.1 %
G2/M (%) (A549 cells [3]; Dox 20 μM): 21.5 ± 1.6%
S (%) (A549 cells [3]; Dox 20 μM): 23.5 ± 0.7 %
Sub G1 (%) (A549 cells [3]; Dox 20 μM): 9.0 ± 0.8 %
cell cycle effect (Anti-Dox-A549 cells [4]; Anti-Dox-A549 cells, Dox 5, 10, or 20 μM (Table 6)): increased at Sub G1 phase and showed cell arrest at S phase
G0/G1 (%) (Anti-Dox-A549 cells [4]; Dox 5 μM): 54.7 ± 1.3 %
G2/M (%) (Anti-Dox-A549 cells [4]; Dox 5 μM): 9.9 ± 0.7 %
S (%) (Anti-Dox-A549 cells [4]; Dox 5 μM): 24.1 ± 0.5 %
Sub G1 (%) (Anti-Dox-A549 cells [4]; Dox 5 μM): 6.4 ± 0.6 %
G0/G1 (%) (Anti-Dox-A549 cells [4]; Dox 10 μM): 62.8 ± 0.6%
G2/M (%) (Anti-Dox-A549 cells [4]; Dox 10 μM): 9.4 ± 0.9 %
S (%) (Anti-Dox-A549 cells [4]; Dox 10 μM): 19.9 ± 0.1 %
Sub G1 (%) (Anti-Dox-A549 cells [4]; Dox 10 μM): 4.6 ± 0.3 %
G0/G1 (%) (Anti-Dox-A549 cells [4]; Dox 20 μM): 58.1 ± 3.4%
G2/M (%) (Anti-Dox-A549 cells [4]; Dox 20 μM): 12.4 ± 1.5%
S (%) (Anti-Dox-A549 cells [4]; Dox 20 μM): 18.7 ± 0.4 %
Sub G1 (%) (Anti-Dox-A549 cells [4]; Dox 20 μM): 6.2 ± 0.6 %
